Data reported in patent publication US20170290774A1, “NEUROKININ-1 RECEPTOR ANTAGONIST COMPOSITION FOR TREATMENT OF DISEASES AND CONDITIONS OF THE RESPIRATORY TRACT” (PLUS VITECH, S.L., priority 2014, published 2017).

System: MMP-7
Assay: Immunohistochemistry of MMP-7 in respiratory tract tissue of sodium hypochlorite aerosol-treated rabbits
Type: in vivo, New Zealand albino rabbits
From the text: It is known that the factors TGF-α, TGF-β 1, TGF-β 2, TGF-β 3, SPARC, MMP-3; MMP-7, MMP-9, MMP-11, MMP-13 and MMP-14, TGF-β, NF-kB, EGF, MMP-9, VEGF and TNF-α which are produced by lung cells (pneumocytes, fibroblasts and vascular endothelial cells) and inflammatory cells (macrophages, lymphocytes and polymorphonuclear leukocytes) are involved in the pathophysiology and development of said respiratory tract diseases. […] Herein, 27 New Zealand albino rabbits (New Zealand White Rabbit) with an initial average weight about 3 kg were used in this example. All subjects were administered an aerosol of a solution consisting of a mixture of water and sodium hypochlorite (35 g sodium hypochlorite per liter of water) at a rate of 5 mL of said solution by inhalation three times a day for 7 days (days 1 to 7 of experimentation). Subsequently, from days 3 to 7, a group of 3 rabbits (Group 1) was administered an oral dose of 10 mg/kg body weight per day, another group of 3 rabbits (Group 2) was administered an oral dose of 40 mg/kg body weight per day, a third group (Group 3) was administered an oral dose of 80 mg/kg body weight per day and a fourth group (Group 4) was administered an oral dose of 100 mg/kg body weight per day. […] This mixture was administered as an aerosol by inhalation, also from days 3 to 7, to a group of 3 rabbits (group 5) at a dose of 0.05 mg/kg body weight per day, to another group of three rabbits (Group 6) at a dose of 0.1 mg/kg body weight per day, to another group of three rabbits (Group 7) at a dose of 0.2 mg/kg body weight per day and to another group of three rabbits (Group 8) at a dose of 0.4 mg/kg body weight per day. A placebo consisting only of olive oil was administered from days 3 to 7 to a control group of 3 rabbits (placebo group). In parallel, 3 rabbits were kept under identical conditions but were not administered any treatment nor the aforementioned sodium hypochlorite solution (control group). […] On day 7 of the experiment all animals were euthanized and necropsied. […] Samples were taken at the peripheral level of the lung parenchyma, just below the pleural surface. Tissue samples were also taken from the nasal cavity, pharynx, larynx and bronchi. Immunohistochemistry studies were performed for all samples to evaluate the levels of the markers TGF-α, TGF-β 1, TGF-β 2, TGF-β 3 SPARC, MMP-3; MMP-7, MMP-9, MMP-11, MMP-14, TGF-β, TNF-α and VEGF. In said immunohistochemistry studies, a sample of each sample was dehydrated by treatment with increasing concentrations of ethanol and finally xylene. Subsequently said dried samples were embedded in paraffin, thus creating a block. Said paraffin blocks were cut on a microtome to a thickness of 5 μm, and the resulting sections (slices) were placed on slides suitable for conducting immunohistochemistry techniques. Subsequently, the sections were deparaffinised by immersion in xylene and then rehydrated through immersion in a series of solutions containing decreasing concentrations of ethanol and, finally, water. […] The samples were then allowed to cool to room temperature over 10 minutes. Endogenous peroxidase activity was blocked by treatment with 3% hydrogen peroxide over 30 min at room temperature. […] In order to verify the expression of NK1 receptors, the cell samples were incubated in the presence of anti-NK1 antibodies ([…], Sigma-Aldrich) diluted 1:1000 at 4° C. overnight. After this time they were washed in 0.05M Tris buffer at room temperature. Subsequently, Envision System-HRP (Dako) reagents were added for 30 min at room temperature. Once this time had expired, the samples were again washed with 0.05 M Tris buffer, and immunoreactivity was visualized by light microscopy with a chromogenic solution with 3,3'-diaminobenzidine (DAB+; Dako, USA). In order to differentiate the cell nuclei, these were lightly stained with haematoxylin. Samples that were not incubated with the primary antibody, but wherein this was replaced by a non-immune serum were used as negative controls. […]

SMILES: C[C@@H](OC1OCCN(Cc2nc(=O)[nH][nH]2)C1c1ccc(F)cc1)c1cc(C(F)(F)F)cc(C(F)(F)F)c1 (stereo in doubt) [Aprepitant, 5-([(2R,3S)-2-((R)-1-[3,5-bis(trifluoromethyl)phenyl]ethoxy)-3-(4-fluorophenyl)morpholino]methyl)-1H-1,2,4-triazol-3(2H)-one]
- Percent increase in MMP-7 with respect to the control group (bronchial tissue, Group 1, oral 10 mg/kg per day): 504.23%
- Percent increase in MMP-7 with respect to the control group (bronchial tissue, Group 2, oral 40 mg/kg per day): 406.34%
- Percent increase in MMP-7 with respect to the control group (bronchial tissue, Group 3, oral 80 mg/kg per day): 398.45%
- Percent increase in MMP-7 with respect to the control group (bronchial tissue, Group 4, oral 100 mg/kg per day): 289.56%
- % Med G5/C: percent increase in marker MMP-7 with respect to the control group (bronchial tissue, Group 5): 549.34%
- % Med G6/C: percent increase in marker MMP-7 with respect to the control group (bronchial tissue, Group 6): 467.45%
- % Med G7/C: percent increase in marker MMP-7 with respect to the control group (bronchial tissue, Group 7): 356.47%
- % Med G8/C: percent increase in marker MMP-7 with respect to the control group (bronchial tissue, Group 8): 241.56%
- Percent increase in MMP-7 with respect to the control group (laryngeal tissue, Group 1, oral 10 mg/kg per day): 1,012.67%
- Percent increase in MMP-7 with respect to the control group (laryngeal tissue, Group 2, oral 40 mg/kg per day): 899.78%
- Percent increase in MMP-7 with respect to the control group (laryngeal tissue, Group 3, oral 80 mg/kg per day): 788.56%
- Percent increase in MMP-7 with respect to the control group (laryngeal tissue, Group 4, oral 100 mg/kg per day): 576.89%
- Percent increase in MMP-7 with respect to the control group (laryngeal tissue, Group 5, inhalation 0.05 mg/kg per day): 1,205.45%
- Percent increase in MMP-7 with respect to the control group (laryngeal tissue, Group 6, inhalation 0.1 mg/kg per day): 809.54%
- Percent increase in MMP-7 with respect to the control group (laryngeal tissue, Group 7, inhalation 0.2 mg/kg per day): 372.23%
- Percent increase in MMP-7 with respect to the control group (laryngeal tissue, Group 8, inhalation 0.4 mg/kg per day): 112.25%
- Percent increase in MMP-7 with respect to the control group (lung tissue, Group 1, oral 10 mg/kg per day): 345.90%
- Percent increase in MMP-7 with respect to the control group (lung tissue, Group 2, oral 40 mg/kg per day): 325.50%
- Percent increase in MMP-7 with respect to the control group (lung tissue, Group 3, oral 80 mg/kg per day): 220.38%
- Percent increase in MMP-7 with respect to the control group (lung tissue, Group 4, oral 100 mg/kg per day): 184.56%
- Percent increase in MMP-7 with respect to the control group (lung tissue, Group 5, inhalation 0.05 mg/kg per day): 321.48%
- Percent increase in MMP-7 with respect to the control group (lung tissue, Group 6, inhalation 0.1 mg/kg per day): 232.63%
- Percent increase in MMP-7 with respect to the control group (lung tissue, Group 7, inhalation 0.2 mg/kg per day): 142.07%
- Percent increase in MMP-7 with respect to the control group (lung tissue, Group 8, inhalation 0.4 mg/kg per day): 109.05%
- Percent increase in MMP-7 with respect to the control group (nasal cavity tissue, Group 1, oral 10 mg/kg per day): 2,267.10%
- Percent increase in MMP-7 with respect to the control group (nasal cavity tissue, Group 2, oral 40 mg/kg per day): 1,308.16%
- Percent increase in MMP-7 with respect to the control group (nasal cavity tissue, Group 3, oral 80 mg/kg per day): 1,119.62%
- Percent increase in MMP-7 with respect to the control group (nasal cavity tissue, Group 4, oral 100 mg/kg per day): 942.01%
- Percent increase in MMP-7 with respect to the control group (nasal cavity tissue, Group 5, inhalation 0.05 mg/kg per day): 1,835.98%
- Percent increase in MMP-7 with respect to the control group (nasal cavity tissue, Group 6, inhalation 0.1 mg/kg per day): 1,147.87%
- Percent increase in MMP-7 with respect to the control group (nasal cavity tissue, Group 7, inhalation 0.2 mg/kg per day): 444.94%
- Percent increase in MMP-7 with respect to the control group (nasal cavity tissue, Group 8, inhalation 0.4 mg/kg per day): 136.90%
- Percent increase in MMP-7 with respect to the control group (pharyngeal tissue, Group 1, oral 10 mg/kg per day): 2,004.34%
- Percent increase in MMP-7 with respect to the control group (pharyngeal tissue, Group 2, oral 40 mg/kg per day): 1,591.34%
- Percent increase in MMP-7 with respect to the control group (pharyngeal tissue, Group 3, oral 80 mg/kg per day): 1,456.45%
- Percent increase in MMP-7 with respect to the control group (pharyngeal tissue, Group 4, oral 100 mg/kg per day): 967.12%
- Percent increase in MMP-7 with respect to the control group (pharyngeal tissue, Group 5, inhalation 0.05 mg/kg per day): 1,820.78%
- Percent increase in MMP-7 with respect to the control group (pharyngeal tissue, Group 6, inhalation 0.1 mg/kg per day): 1,109.45%
- Percent increase in MMP-7 with respect to the control group (pharyngeal tissue, Group 7, inhalation 0.2 mg/kg per day): 450.45%
- Percent increase in MMP-7 with respect to the control group (pharyngeal tissue, Group 8, inhalation 0.4 mg/kg per day): 121.80%
